System: C57BL/6J mice fed CDAA-HF
Assay: Fibrotic markers in livers of mice fed choline deficient high fat (CDAA-HF) diet
Format: in vivo, mouse
Settings: 20, 60 and 200 mg/kg oral gavage daily, final week of 4 weeks CDAA-HF, *p<0.05 vs vehicle
Description: The choline deficient amino acid defined diet (CDAA) is a well-characterized model of […] associated liver inflammation and fibrosis. The CDAA-HF mouse model is commonly used to preclinically evaluate potential therapeutic targets for non-alcoholic steatohepatitis (NASH). To investigate the effect of Compound 26 (Example 26; 20, 60, and 200 mg/kg, oral gavage, daily) on fibrotic gene and protein parameters, 10 week-old male C57BL/6J mice were fed CDAA-HF (choline deficient, L-amino acid defined, high fat diet; A16092201) for 4 weeks, with Compound 26 treatment only during the final week of the study. On the last day of the study, mice were euthanized by CO2 asphyxiation for tissue collection, and blood was collected by cardiac puncture. Livers were rapidly removed and frozen in liquid nitrogen for downstream mRNA and protein isolation. […] Statistical analysis was performed with One Way ANOVA. *p<0.05 vs vehicle treated (FIG. 1). Col1a1=Collagen; TGFB2=transforming growth factor beta 2. All procedures performed on animals were in accordance with regulations and established guidelines and were reviewed and approved by an Institutional Animal Care and Use Committee or through an ethical review process.

COc1ccc(-c2nc3sc4c(O)c(Cl)ccc4c3c(=O)n2Cc2cnco2)c(C2CC2)c1 [Example 26, 7-chloro-2-(2-cyclopropyl-4-methoxyphenyl)-8-hydroxy-3-(oxazol-5-ylmethyl)benzo[4,5]thieno[2,3-d]pyrimidin-4(3H)-one]
significantly decreases: liver collagen (Col1a1) mRNA (FIG. 1a) | liver TGFB2 (fibrotic cytokine) (FIG. 1b) | liver fibronectin (fibroblast activation marker) (FIG. 1c)

From patent US20250154163A1, “Pyrimidinone-Containing 17-Beta-Hydroxysteroid Dehydrogenase Type 13 Inhibitors” (ENANTA PHARMACEUTICALS, INC., priority 2023, published 2025)
